In patent US12370182B2, “Bicyclic derivatives as GABAA A5 receptor modulators” (RICHTER GEDEON NYRT., priority 2018, dated 2025):

Legend:
[1] = biological target: T1, human recombinant GABAA α5β3γ2 receptor (Homo sapiens (Human), UniProt P18507+P31644); test: Binding assay, [3H]Ro151788 displacement on membranes of HEK cells; conditions: 0.5 nM [3H]Ro151788, 60 minutes at 4° C., Cheng-Prusoff; read-out: hGABAA α5 Ki
Method in brief: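 HEK-cell membranes with recombinant human α5β3γ2 incubated 60 min at 4 °C with 0.5 nM [3H]Ro151788 in 50 mM Tris pH 7.4, 100 mM KCl; nonspecific binding with 10 μM diazepam. Filtration, scintillation count; % inhibition of specific binding, IC50 from ≥6 concentrations in triplicate, Ki via Cheng-Prusoff.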

[2] = biological target: human recombinant GABAA α1β3γ2 receptor (Homo sapiens (Human), UniProt P14867+P18507); test: Functional assay, QPatch automated patch clamp, GABA-evoked currents; type: cell-based; conditions: test compound 10 μM, 1 μM GABA, HEK293 cells, percentage modulation of peak current
Method: (§1) Human HEK293 cell lines expressing GABAA α1β3γ2 and GABAAα5β3γ2 receptors were used in functional assays using the QPatch automated patch clamp system.
(§2) HEK293 cell lines stably expressing human recombinant GABAA α1β3γ2 receptor subunits (Millipore, CYL3073) or human recombinant GABAA α5β3γ2 receptor subunits (Millipore, CYL3053) were cultured in DMEM supplemented with 10% FBS (Gibco), passed two times per week and plated on Petri dishes previously coated with poly-d-lysine.
(§3) Automated whole-cell patch clamp recordings were made from cells 2-4 days after plating. Cells were detached using trypsin/EDTA (Sigma) treatment (2 minutes in 0.25% trypsin at 37° C.), then, after centrifugation (125 G, 3 min, 2×), resuspended in a serum-free based media (Gibco, CHO—S-SFM-II) containing 12.5 mM HEPES, 1× penicillin-streptomycin-amphotericin (SigmaMix) and soybean trypsin inhibitor (Sigma, 0.04 mg/ml).
(§4) Cell suspension, as well as the extracellular solution (130 mM NaCl, 5 mM KCl, 5.1 mM HEPES, 4.9 mM HEPES-Na, 10 mM CaCl2), 2 mM MgCl2, 10 mM glucose and 0.1% DMSO, pH=7.35-7.4) and the intracellular solution (80 mM KCl, 50 mM KF, 36 mM KOH, 10 mM EGTA, 10 mM HEPES, 1.75 mM MgCl2, 0.5 mM CaCl2), 4 mM Na2ATP. 14 mM phosphocreatine, 50 U/ml creatine-phosphokinase, 0.3 mM GTP, pH=7.25-7.3) were added to the QPatch-HTX automated patch clamp system (Sophion) in single-cell mode at room temperature. […] At the end of the experiment 100 μM GABA was applied to saturate the GABA-response and to assess the efficacy of the control GABA application.
(§5) The percentage modulation was calculated from the comparison of GABA-evoked peak current amplitudes in the presence and absence of the test compound.

[3] = biological target: T1, human recombinant GABAA α5β3γ2 receptor; test: as above; type: cell-based; conditions: test compound 10 μM, 1 μM GABA, HEK293 cells, percentage modulation of peak current
Method: as §1, §2, §3, §4, §5

Sequence of human recombinant GABAA α1β3γ2 receptor (P14867 28-456): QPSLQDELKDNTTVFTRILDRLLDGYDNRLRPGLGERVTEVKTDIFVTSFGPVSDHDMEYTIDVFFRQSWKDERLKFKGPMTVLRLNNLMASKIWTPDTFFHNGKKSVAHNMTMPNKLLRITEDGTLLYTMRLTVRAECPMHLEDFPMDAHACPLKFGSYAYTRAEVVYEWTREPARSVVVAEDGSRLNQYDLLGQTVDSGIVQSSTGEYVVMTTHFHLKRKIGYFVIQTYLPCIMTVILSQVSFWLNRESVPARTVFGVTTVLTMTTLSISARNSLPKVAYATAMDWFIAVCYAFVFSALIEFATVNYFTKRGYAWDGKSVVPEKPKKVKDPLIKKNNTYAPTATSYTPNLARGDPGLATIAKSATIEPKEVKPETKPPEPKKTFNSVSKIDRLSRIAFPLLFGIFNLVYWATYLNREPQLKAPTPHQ
Sequence of human recombinant GABAA α1β3γ2 receptor (P28472 26-473 partner): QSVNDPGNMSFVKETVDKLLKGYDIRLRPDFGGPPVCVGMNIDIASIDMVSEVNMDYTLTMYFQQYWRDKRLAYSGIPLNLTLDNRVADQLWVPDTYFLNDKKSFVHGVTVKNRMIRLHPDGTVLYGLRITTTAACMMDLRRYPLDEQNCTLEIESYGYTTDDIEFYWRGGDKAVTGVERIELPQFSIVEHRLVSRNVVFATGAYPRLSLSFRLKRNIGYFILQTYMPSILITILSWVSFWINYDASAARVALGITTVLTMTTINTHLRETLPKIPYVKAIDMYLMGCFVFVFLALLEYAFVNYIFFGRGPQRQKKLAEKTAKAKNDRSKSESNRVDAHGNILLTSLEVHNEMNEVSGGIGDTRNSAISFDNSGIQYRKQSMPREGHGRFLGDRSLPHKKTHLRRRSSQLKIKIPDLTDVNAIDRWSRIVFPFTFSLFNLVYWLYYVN
Sequence of human recombinant GABAA α1β3γ2 receptor (P18507 40-475): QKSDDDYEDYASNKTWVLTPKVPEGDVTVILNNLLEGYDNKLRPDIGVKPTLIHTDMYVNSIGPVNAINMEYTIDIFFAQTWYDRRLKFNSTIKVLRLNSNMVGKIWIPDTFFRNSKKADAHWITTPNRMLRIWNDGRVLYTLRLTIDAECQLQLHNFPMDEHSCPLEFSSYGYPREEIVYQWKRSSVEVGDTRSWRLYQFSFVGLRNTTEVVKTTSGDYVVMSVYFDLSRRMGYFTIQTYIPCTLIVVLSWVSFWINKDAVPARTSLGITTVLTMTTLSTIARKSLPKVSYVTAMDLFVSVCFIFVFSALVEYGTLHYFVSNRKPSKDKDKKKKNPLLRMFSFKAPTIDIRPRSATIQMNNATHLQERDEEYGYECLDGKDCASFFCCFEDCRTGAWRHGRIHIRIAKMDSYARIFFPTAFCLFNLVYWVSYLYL
T1 sequence (P31644 32-462): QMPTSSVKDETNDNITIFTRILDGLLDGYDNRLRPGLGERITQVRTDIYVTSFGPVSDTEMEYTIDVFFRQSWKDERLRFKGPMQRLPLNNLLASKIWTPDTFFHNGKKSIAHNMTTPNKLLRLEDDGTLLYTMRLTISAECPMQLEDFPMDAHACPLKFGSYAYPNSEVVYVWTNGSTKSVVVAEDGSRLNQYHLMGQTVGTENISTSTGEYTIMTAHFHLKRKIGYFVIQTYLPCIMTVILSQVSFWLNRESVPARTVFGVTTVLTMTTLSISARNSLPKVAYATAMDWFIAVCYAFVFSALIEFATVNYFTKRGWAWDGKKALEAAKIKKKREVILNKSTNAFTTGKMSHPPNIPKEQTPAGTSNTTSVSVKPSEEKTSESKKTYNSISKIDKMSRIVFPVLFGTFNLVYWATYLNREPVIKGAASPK
T1 sequence (P28472 26-473 partner): as the sequence (P28472 26-473 partner) above
T1 sequence (P18507 40-475): as the sequence (P18507 40-475) above

| Structure (SMILES) | Ki [1] | hGABAA α1 efficacy [2] | hGABAA α5 efficacy [3] |
| --- | --- | --- | --- |
| Cc1nnn(-c2ccc(F)cc2)c1COc1ccc2c(n1)CCN(C(=O)[C@@H]1CCOC1)C2 [Example 17, 2-{[1-(4-fluorophenyl)-4-methyl-1H-1,2,3-triazol-5-yl]methoxy}-6-[(3R)-oxolane-3-carbonyl]-5,6,7,8-tetrahydro-1,6-naphthyridine] | 69 nM | −6% | −37% |
| Cc1nnn(-c2ccc(F)cc2)c1COc1ccc2c(n1)CCN(C(=O)[C@H]1CCOC1)C2 [Example 18, 2-{[1-(4-fluorophenyl)-4-methyl-1H-1,2,3-triazol-5-yl]methoxy}-6-[(3S)-oxolane-3-carbonyl]-5,6,7,8-tetrahydro-1,6-naphthyridine] | 50 nM | −5% | −45% |
| Cc1nnn(-c2ccc(F)cc2)c1COc1ccc2c(n1)CCN(C(=O)C1CCS(=O)(=O)CC1)C2 [Example 23, 4-(2-{[1-(4-fluorophenyl)-4-methyl-1H-1,2,3-triazol-5-yl]methoxy}-5,6,7,8-tetrahydro-1,6-naphthyridine-6-carbonyl)-1lambda6-thiane-1,1-dione] | 45 nM | −4% | −47% |
| Cc1nnn(-c2ccc(F)cc2)c1COc1ccc2c(n1)CCN(C(=O)C1CCOCC1)C2 [Example 28, 2-{[1-(4-fluorophenyl)-4-methyl-1H-1,2,3-triazol-5-yl]methoxy}-6-(oxane-4-carbonyl)-5,6,7,8-tetrahydro-1,6-naphthyridine] | 43 nM | −6% | −40% |
| CC(=O)N1Cc2ccc(OCc3c(C)nnn3-c3ccc(F)cc3)nc2C1 [Example 45, 1-(2-{[1-(4-fluorophenyl)-4-methyl-1H-1,2,3-triazol-5-yl]methoxy}-5H,6H,7H-pyrrolo[3,4-b]pyridin-6-yl)ethan-1-one] | 3.2 nM | −7% | −30% |
| Cc1nnn(-c2ccc(F)cc2)c1COc1ccc2c(n1)CN(C(=O)C1CC1)C2 [Example 47, cyclopropyl(2-{[1-(4-fluorophenyl)-4-methyl-1H-1,2,3-triazol-5-yl]methoxy}-5,7-dihydro-6H-pyrrolo[3,4-b]pyridin-6-yl)methanone] | 7.2 nM | −10% | −34% |
| Cc1nnn(-c2ccc(F)cc2)c1COc1ccc2c(n1)CN(C(=O)CC(C)C)C2 [Example 56, 1-(2-{[1-(4-fluorophenyl)-4-methyl-1H-1,2,3-triazol-5-yl]methoxy}-5H,6H,7H-pyrrolo[3,4-b]pyridin-6-yl)-3-methylbutan-1-one] | 17 nM | −14% | −40% |
| Cc1nnn(-c2ccc(F)cc2)c1COc1ccc2c(n1)CN(C(=O)C1CCCO1)C2 (stereo not drawn) [Example 61, 1-(4-fluorophenyl)-4-methyl-5-({[6-(oxolane-2-carbonyl)-5H,6H,7H-pyrrolo[3,4-b]pyridin-2-yl]oxy}methyl)-1H-1,2,3-triazole] | 4.8 nM | −20% | −41% |
| Cc1nnn(-c2ccc(F)cc2)c1COc1ccc2c(n1)CCN(C(=O)NC1CC(=O)N(C)C1)C2 (stereo not drawn) [Example 75, 2-{[1-(4-fluorophenyl)-4-methyl-1H-1,2,3-triazol-5-yl]methoxy}-N-(1-methyl-5-oxopyrrolidin-3-yl)-5,6,7,8-tetrahydro-1,6-naphthyridine-6-carboxamide] | 38 nM | −3% | −35% |
| Cc1nnn(-c2ccc(F)cc2)c1COc1ccc2c(n1)CCN(C(=O)NC1CCOC1)C2 (stereo not drawn) [Example 78, 2-{[1-(4-fluorophenyl)-4-methyl-1H-1,2,3-triazol-5-yl]methoxy}-N-(oxolan-3-yl)-5,6,7,8-tetrahydro-1,6-naphthyridine-6-carboxamide] | 28 nM | −3% | −34% |
